Laboratory results published in patent publication US20210330736A1 (UNIVERSITEIT VAN AMSTERDAM, priority 2018, published 2021).

Columns and labels:
[1] = test system: Th Ser40 phosphorylation in mouse striatum slices; assay: Th Ser40 phosphorylation in mouse striatal slices ex vivo (WES automated western); type: cell-based; details: mouse striatal slices in aCSF
Text: FIG. 13. Bay 60-7550 and Guanylin synergize to induce Ser40 phosphorylation Analysis of striatal slices treated with indicated compounds. WES data showing the phosphorylation of Th on Serine 40 is shown as well as total Th levels (a). From left to right are sequential striatal slices from rostral to caudal. Every slice is split into left and right hemisphere and either treated with compounds or vehicle. Left a positive and negative control is shown (Neuro2a cells transfected with Th or empty vector). The amount of Th Ser40 is corrected for the amount of total Th and shown in the bar graph (b). Each individual slice is indicated by a different symbol. Signficance is determined using a 2-tailed paired t-test. 2-tailed paired t-test: p=0.006.
Adult mice with an average of 5 weeks were sacrificed and the brain was quickly removed and sliced into coronal sections of 250 μm using a vibratome. Sections containing striatum were micro-dissected to remove non-striatal structures. Hemispheres were separated and one hemisphere was treated with compounds whereas the counter-hemisphere was treated with vehicle. Treatment of slices occurred in carbonized artificial cerebrospinal fluid (aCSF). After treatments, slices were lyzed in SDS containing sample buffer, sonicated, and heated at 95° C. Samples were analyzed on a WES automated western system (Protein Simple) according to manufacturer's instructions.
To investigate the effect of PDE2 inhibition in the mouse brain, an ex-vivo approach using brain slices was utilized. Coronal slices of mouse striatum were prepared and treated with BAY-60 7550 diluted in aCSF and subsequently analyzed by a WES automated western system. […] PDE2 is thus expressed in dopaminergic neurons and PDE2 protein and Th protein are present in the synaptic terminals of the neurons which project from the midbrain dopamine system to the striatum. To investigate the effects of GUCY2C ligands on Th activation, coronal slices of the mouse striatum were prepared, treated with guanylin and analyzed for Th Ser40 phosphorylation as was done for BAY-60-7550. […] The machinery for producing dopamine is thus present in the synaptic terminals where dopamine is released. […] Since both BAY 60-7550 and guanylin increased Th phosphorylation at 10μM, but not at 1 μM, we examined the effect of combining BAY 60-7750 and guanylin at 1μM.

GUCY2C = GUCY2C (Homo sapiens, UniProt P25092); assay: GUCY2C ligand analysis in HEK-293 cells transfected with GUCY2C and Th (WES); type: cell-based; set-up: expressed in transfected cells; host or cells: HEK-293 cells transfected with GUCY2C and Th; details: 10 μM, Th Ser40 corrected for total Th, n=3
Chain of GUCY2C (P25092 24-1073): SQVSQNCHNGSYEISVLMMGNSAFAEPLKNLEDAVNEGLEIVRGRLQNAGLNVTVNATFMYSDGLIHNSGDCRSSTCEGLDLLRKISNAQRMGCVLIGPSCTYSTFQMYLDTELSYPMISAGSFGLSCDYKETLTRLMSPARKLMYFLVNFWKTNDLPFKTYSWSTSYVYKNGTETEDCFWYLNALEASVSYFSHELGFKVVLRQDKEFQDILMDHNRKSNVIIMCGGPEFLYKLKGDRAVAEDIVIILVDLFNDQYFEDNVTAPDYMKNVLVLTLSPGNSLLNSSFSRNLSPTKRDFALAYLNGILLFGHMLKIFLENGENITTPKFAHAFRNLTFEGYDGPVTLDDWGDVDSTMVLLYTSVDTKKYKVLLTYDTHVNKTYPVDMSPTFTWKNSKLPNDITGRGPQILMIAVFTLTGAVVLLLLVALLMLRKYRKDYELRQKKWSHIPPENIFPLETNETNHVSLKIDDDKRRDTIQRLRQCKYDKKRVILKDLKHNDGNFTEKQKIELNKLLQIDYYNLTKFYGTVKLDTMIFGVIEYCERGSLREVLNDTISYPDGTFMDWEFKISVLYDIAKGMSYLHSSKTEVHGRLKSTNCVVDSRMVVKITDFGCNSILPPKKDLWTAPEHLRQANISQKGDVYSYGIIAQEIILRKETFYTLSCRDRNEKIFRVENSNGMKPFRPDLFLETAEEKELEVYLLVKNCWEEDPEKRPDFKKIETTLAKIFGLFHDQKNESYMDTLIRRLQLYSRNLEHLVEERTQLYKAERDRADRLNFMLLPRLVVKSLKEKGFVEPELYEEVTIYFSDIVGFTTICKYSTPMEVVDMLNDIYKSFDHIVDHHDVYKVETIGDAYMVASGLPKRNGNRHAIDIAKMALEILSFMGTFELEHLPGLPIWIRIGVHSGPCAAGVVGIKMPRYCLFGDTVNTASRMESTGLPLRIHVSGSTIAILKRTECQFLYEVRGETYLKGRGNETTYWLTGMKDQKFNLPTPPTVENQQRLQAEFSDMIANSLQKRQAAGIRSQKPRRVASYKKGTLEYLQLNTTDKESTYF
Procedure: Potential GUCY2C ligands were tested in HEK-293 cells transfected with GUCY2C and Th and subsequently treated and analyzed by automated western (WES). Th Ser40 was corrected for total Th. Controls were set to 1. Significance is determined by two-tailed t-test on n=3. * p<0.05, **p<0.01, ***p<0.005, “”p<0.001. A) Guanylin control 10 μM. B) Peptides 1 to 5 in an amount of 10 μM. C) Peptides 6 to 11 in an amount of 10 μM.
We designed novel peptides with different activities with respect to endogenous GUCY2C ligands (Table 3). The peptides were analyzed in Th and GUCY2C transfected HEK-293 cells and subsequently tested ex-vivo in mice striatal slices. […] We synthezised uroguanylin and heat stable toxin as controls for the synthezised peptides and they thus are from a different source than the commercially available uroguanylin and heat stable toxin. […] Possibly the effects of the peptides can differ depending on the area in the striatum which is stimulated.

| Molecule | Ser40 phosphorylation in striatal slices ([1]; 1 μM) | Ser40 phosphorylation in striatal slices ([1]; 10 μM) | Ser40 phosphorylation in HEK-293 cells (significance, in words) (GUCY2C) |
| --- | --- | --- | --- |
| guanylin: natural agonistic ligand of GUCY2C, 15 amino acid polypeptide; commercially available rat/mouse guanylin (Chemcruz) (PNTCEICAYAACTGC) [reference compound] | did not result in a significant increase | increase in Ser40 phosphorylation | modest, but significant increase |
| COc1ccc(Cc2nn3c([C@@H](CCCc4ccccc4)[C@@H](C)O)nc(C)c3c(=O)[nH]2)cc1OC [BAY 60-7550] | did not result in a significant increase | increase in Ser40 phosphorylation | – |
